Source: patent US5843449A, “Proteins and novel peptides derived from autoantigen for use in immunotherapy of autoimmune diseases” (Akzo Nobel N.V., priority 1996, dated 1998)
Like-named read-outs stand apart in the source and are kept apart here. Residues, ends and D or L forms follow the SMILES beside them.

Legend:
PBMC from healthy donors = assay: Proliferative responses of PBMC from healthy donors (3H-thymidine); type: cell-based, human; conditions: 10% autologous serum
Experimental: PBMC's from healthy donors carrying the DR4Dw4 (DRB1*0401) or the DR1 specificity were collected as a control.
(§1) PBMC obtained from heparinized venous peripheral blood were isolated by standard centrifugation on a Ficoll-Paque gradient. […] Cultures were incubated in a total volume of 210 μl for 7 days at 37° C. in a humidified atmosphere of 5% CO2. Cultures were pulsed during the last 18 hours with 0.25 μCi^3 H-thymidine.

[1] = target: T1, DR4Dw4 (DRB1*0401) HLA-DR molecules (Homo sapiens, UniProt P01903+P01911, A100K/A169T/F76Y/I96L/K127E/L162R/M171V/N62H/P40V/Q125Y/R42H/S133A/S149N/S66Y/V115G/V209L/W38E); assay: HLA-DR peptide binding assay (competition with biotinylated marker peptide), DR4Dw4; conditions: pH = 5, 50 nM biotin-spacer-IHA(307-319)F marker peptide
T1 construct: endogenous in cells; host or cells: BSM, EBV-transformed B-cell line

DR4Dw14 HLA-DR molecules = assay: HLA-DR peptide binding assay (competition with biotinylated marker peptide), DR4Dw14; set-up: species or system human; conditions: pH = 5, 50 nM biotin-spacer-IHA(307-319)F marker peptide
PBMC from RA patients = assay: Proliferative responses of PBMC from RA patients (3H-thymidine); type: cell-based, human; conditions: 10% autologous serum
Experimental: Peripheral blood mononuclear cells (PBMC) from patients who were diagnosed as suffering from RA according to the American Rheumatism Association (ARA) criteria (Arnett et al., Arthritis Rheum. 31:315, 1988) were collected.
as §1

## CC(C)C[C@H](NC(=O)[C@@H](NC(=O)[C@H](Cc1ccccc1)NC(=O)[C@H](CO)NC(=O)[C@@H](N)CCCNC(=N)N)[C@@H](C)O)C(=O)N[C@@H](C)C(=O)N[C@@H](CO)C(=O)N[C@@H](CO)C(=O)N[C@@H](CCC(=O)O)C(=O)N[C@H](C(=O)NCC(=O)N[C@H](C(=O)NCC(=O)O)C(C)C)[C@@H](C)O [Peptide 2] (H-RSFTLASSETGVG-OH)
PBMC from healthy donors; healthy donor 155-03 (NR), peptide 10 μg/ml
  Proliferative response, stimulation index (SI): 1
PBMC from healthy donors; healthy donor 155-03 (NR), peptide 100 μg/ml
  Proliferative response, stimulation index (SI): 1
PBMC from healthy donors; healthy donor 156-03 (NR), peptide 10 μg/ml
  Proliferative response, stimulation index (SI): 1
PBMC from healthy donors; healthy donor 156-03 (NR), peptide 100 μg/ml
  Proliferative response, stimulation index (SI): < 1
PBMC from healthy donors; healthy donor 157-03 (NR), peptide 10 μg/ml
  Proliferative response, stimulation index (SI): < 2
PBMC from healthy donors; healthy donor 157-03 (NR), peptide 100 μg/ml
  Proliferative response, stimulation index (SI): < 2
PBMC from healthy donors; healthy donor 157-04 (R), peptide 10 μg/ml
  Proliferative response, stimulation index (SI): 1
PBMC from healthy donors; healthy donor 157-04 (R), peptide 100 μg/ml
  Proliferative response, stimulation index (SI): < 1
PBMC from healthy donors; healthy donor 168-03 (NR), peptide 10 μg/ml
  Proliferative response, stimulation index (SI): < 1
PBMC from healthy donors; healthy donor 168-03 (NR), peptide 100 μg/ml
  Proliferative response, stimulation index (SI): < 1
PBMC from healthy donors; healthy donor 168.02 (NR), peptide 10 μg/ml
  Proliferative response, stimulation index (SI): < 2
PBMC from healthy donors; healthy donor 168.02 (NR), peptide 100 μg/ml
  Proliferative response, stimulation index (SI): < 1
PBMC from healthy donors; healthy donor 169-02 (NR), peptide 10 μg/ml
  Proliferative response, stimulation index (SI): 1
PBMC from healthy donors; healthy donor 169-02 (NR), peptide 100 μg/ml
  Proliferative response, stimulation index (SI): 1
PBMC from healthy donors; healthy donor 230-01 (NR), peptide 10 μg/ml
  Proliferative response, stimulation index (SI): 1
PBMC from healthy donors; healthy donor 230-01 (NR), peptide 100 μg/ml
  Proliferative response, stimulation index (SI): 1
PBMC from healthy donors; healthy donor 235-0 (NR), peptide 10 μg/ml
  Proliferative response, stimulation index (SI): 1
PBMC from healthy donors; healthy donor 235-0 (NR), peptide 100 μg/ml
  Proliferative response, stimulation index (SI): < 2
PBMC from healthy donors; healthy donor 235-01 (NR), peptide 10 μg/ml
  Proliferative response, stimulation index (SI): < 1
PBMC from healthy donors; healthy donor 235-01 (NR), peptide 100 μg/ml
  Proliferative response, stimulation index (SI): < 1
PBMC from healthy donors; healthy donor 236-01 (NR), peptide 10 μg/ml
  Proliferative response, stimulation index (SI): 1
PBMC from healthy donors; healthy donor 236-01 (NR), peptide 100 μg/ml
  Proliferative response, stimulation index (SI): 1
PBMC from healthy donors; healthy donor 237-0 (NR), peptide 10 μg/ml
  Proliferative response, stimulation index (SI): < 2
PBMC from healthy donors; healthy donor 237-0 (NR), peptide 100 μg/ml
  Proliferative response, stimulation index (SI): < 1
PBMC from healthy donors; healthy donor 237-01 (NR), peptide 10 μg/ml
  Proliferative response, stimulation index (SI): 1
PBMC from healthy donors; healthy donor 237-01 (NR), peptide 100 μg/ml
  Proliferative response, stimulation index (SI): 1
PBMC from healthy donors; healthy donor 238-01 (NR), first line so labelled, peptide 10 μg/ml
  Proliferative response, stimulation index (SI): 1
PBMC from healthy donors; healthy donor 238-01 (NR), first line so labelled, peptide 100 μg/ml
  Proliferative response, stimulation index (SI): < 1
PBMC from healthy donors; healthy donor 238-01 (NR), second line so labelled, peptide 10 μg/ml
  Proliferative response, stimulation index (SI): 1
PBMC from healthy donors; healthy donor 238-01 (NR), second line so labelled, peptide 100 μg/ml
  Proliferative response, stimulation index (SI): 1
PBMC from healthy donors; healthy donor 241-0 (NR), peptide 10 μg/ml
  Proliferative response, stimulation index (SI): 1
PBMC from healthy donors; healthy donor 241-0 (NR), peptide 100 μg/ml
  Proliferative response, stimulation index (SI): < 1
PBMC from healthy donors; healthy donor 241-01 (R), peptide 10 μg/ml
  Proliferative response, stimulation index (SI): < 1
PBMC from healthy donors; healthy donor 241-01 (R), peptide 100 μg/ml
  Proliferative response, stimulation index (SI): < 1
[1]; DOT Blot, densitometer, read-out: ^R IC50, DR4Dw4, DOT Blot
  IC50: 80 nM
[1]; SDS-PAGE, visual inspection, read-out: ^R IC50, DR4Dw4, SDS-PAGE
  IC50: 40 nM
DR4Dw14 HLA-DR molecules; DOT Blot, densitometer, read-out: ^R IC50, DR4Dw14, DOT Blot
  IC50: 190 nM
DR4Dw14 HLA-DR molecules; SDS-PAGE, visual inspection, read-out: ^R IC50, DR4Dw14, SDS-PAGE
  IC50: 200 nM
PBMC from RA patients; RA patient 191-03 (HR), disease state IV, peptide 10 μg/l
  Proliferative response, stimulation index (SI): 1
PBMC from RA patients; RA patient 191-03 (HR), disease state IV, peptide 100 μg/l
  Proliferative response, stimulation index (SI): < 2
PBMC from RA patients; RA patient 215-0 (HR), disease state III-IV, peptide 25 μg/l
  Proliferative response, stimulation index (SI): 3
PBMC from RA patients; RA patient 215-0 (HR), disease state III-IV, peptide 100 μg/l
  Proliferative response, stimulation index (SI): 19
PBMC from RA patients; RA patient 240-0 (HR), disease state II-III, peptide 25 μg/l
  Proliferative response, stimulation index (SI): 5
PBMC from RA patients; RA patient 240-0 (HR), disease state II-III, peptide 100 μg/l
  Proliferative response, stimulation index (SI): 6
PBMC from RA patients; RA patient 242-0 (HR), disease state I, peptide 25 μg/l
  Proliferative response, stimulation index (SI): 4
PBMC from RA patients; RA patient 243-0 (R), disease state III, peptide 10 μg/l
  Proliferative response, stimulation index (SI): 1
PBMC from RA patients; RA patient 243-0 (R), disease state III, peptide 100 μg/l
  Proliferative response, stimulation index (SI): 6
PBMC from RA patients; RA patient 247-0 (R), disease state III, peptide 10 μg/l
  Proliferative response, stimulation index (SI): 1
PBMC from RA patients; RA patient 247-0 (R), disease state III, peptide 100 μg/l
  Proliferative response, stimulation index (SI): 2
PBMC from RA patients; RA patient 248-0 (R), disease state III, peptide 10 μg/l
  Proliferative response, stimulation index (SI): 1
PBMC from RA patients; RA patient 248-0 (R), disease state III, peptide 100 μg/l
  Proliferative response, stimulation index (SI): 1
PBMC from RA patients; RA patient 272-0 (HR), disease state III-IV, peptide 10 μg/l
  Proliferative response, stimulation index (SI): < 1
PBMC from RA patients; RA patient 272-0 (HR), disease state III-IV, peptide 100 μg/l
  Proliferative response, stimulation index (SI): < 1
PBMC from RA patients; RA patient 273-0 (HR), disease state IV, peptide 10 μg/l
  Proliferative response, stimulation index (SI): 7
PBMC from RA patients; RA patient 273-0 (HR), disease state IV, peptide 100 μg/l
  Proliferative response, stimulation index (SI): 6
PBMC from RA patients; RA patient 275-0 (HR), disease state III, peptide 10 μg/l
  Proliferative response, stimulation index (SI): 2
PBMC from RA patients; RA patient 275-0 (HR), disease state III, peptide 100 μg/l
  Proliferative response, stimulation index (SI): 9
PBMC from RA patients; RA patient 276-0 (HR), disease state IV, burnt out, peptide 10 μg/l
  Proliferative response, stimulation index (SI): 3
PBMC from RA patients; RA patient 276-0 (HR), disease state IV, burnt out, peptide 100 μg/l
  Proliferative response, stimulation index (SI): 1
PBMC from RA patients; RA patient 280-0 (HR), disease state IV, burnt out, peptide 10 μg/l
  Proliferative response, stimulation index (SI): 1
PBMC from RA patients; RA patient 280-0 (HR), disease state IV, burnt out, peptide 100 μg/l
  Proliferative response, stimulation index (SI): 4
